The NIST ThermoML archive (doi:10.1016/j.jct.2008.01.002)
± gives the expanded uncertainty stated by the source.

How the values were obtained:
[1] = Liquid; for mass density: 298.15 K, 101.33 kPa; for Normal boiling temperature: Closed cell (Static) method
[2] = refractive index (Na D-line) (dimensionless); settings: 298.15 K; 101.33 kPa; Liquid; Standard Abbe refractometry

| mass density [1] | Normal boiling temperature [1] | refractive index [2] | mass density ([1]; Vibrating tube method) | SMILES |
| --- | --- | --- | --- | --- |
| 799.62 ± 0.79 kg/m3 | 96.60 ± 0.2 °C | 1.3836 ± 0.0005 |  | CCCO [propan-1-ol] |
|  | 82.10 ± 0.2 °C | 1.3754 ± 0.0005 | 782.69 ± 0.12 kg/m3 | CC(C)O [propan-2-ol] |
|  | 100.00 ± 0.2 °C | 1.3332 ± 0.0005 |  | O [water] |

Further lines, the compound ahead of its results:

| SMILES | mass density [1] | Normal boiling temperature [1] | refractive index [2] | mass density ([1]; Vibrating tube method) |
| --- | --- | --- | --- | --- |
| CC(C)OC(C)C [diisopropyl ether] | 718.32 ± 0.96 kg/m3 | 68.2 ± 0.2 °C | 1.3652 ± 0.0005 |  |
| CCCOCCC [dipropyl ether] | 741.81 ± 0.56 kg/m3 | 90.01 ± 0.2 °C | 1.3784 ± 0.0005 |  |
